Results from patent US20250382298A1, “NITROGEN-CONTAINING COMPOUND AND USE THEREOF” (SUZHOU GENHOUSE BIO CO., LTD., priority 2022, published 2025).

How the values were obtained:
HT-29 cells [1] = assay: Mitotic index analysis, pH3 expression in HT-29 cells; format: cell-based, human; conditions: Homo sapiens, 24 h treatment
Method: (§1) HCT-116 and HT-29 cells at the logarithmic growth phase were taken, digested with a cell lysis buffer (trypsin), centrifuged, counted, and seeded into a 96-well plate at an appropriate cell density (20000 cells/well), with 100 μL per well. The surrounding wells were filled with an appropriate amount of PBS to prevent water evaporation. The next day, the cells were treated with the compounds at different concentrations (with a starting concentration of 10 μM, 3-fold diluted to obtain 9 concentration gradients). After 24 h, the medium was aspirated, and the cells were washed twice with 100 μL of PBS. The cells were then fixed with 4% paraformaldehyde and incubated at room temperature for 15 min. The fixative solution was discarded, and the cells were washed with PBS. Then, 150 μL of specialized blocking solution (containing 1% Triton-100) was added to each well for blocking at room temperature for 2 h, and the plate was washed with PBS to remove excess blocking solution. Anti-phistone H3 (pH3) was diluted at a ratio of 1:1000 with a blocking solution containing 0.033% Triton-100, and a blank control group was set up. Then, incubation was performed at 4° C. overnight. The next day, the plate was washed twice with 1×PBST. Anti-rabbit-IgG (H+L) (CST) and DRAQ5 (Thermofisher) were each diluted at an appropriate ratio with a blocking solution containing 0.033% Triton-100 (secondary antibody: 1:2000; DRAQ5: 1:10000). Then, incubation was performed at room temperature for 2 h. The plate was washed twice with 1×PBST and once with PBS. Fluorescence signals at 700 nm and 800 nm were detected using a Li—COR Odyssey two-color near-infrared laser imager. Calculation was performed as follows: pH3 expression (%)=(Cmpd dose/DMSO control)×100. Cmpd dose is the value of the drug treatment group, and DMSO control is the value of the DMSO control group. The EC50 values were determined by fitting using the GraphPad Prism 7.0 software.

KIF18A = KIF18A (Homo sapiens (Human), UniProt Q8NI77); assay: KIF18A enzymatic activity inhibition, ADP-Glo kit; format: biochemical; conditions: 4 nM KIF18A, 30 μM ATP
Method: In this experiment, an ADP-Glo kit was used to detect the inhibitory activity of the compounds against KIF18A. Each compound was prepared into a 10 mM stock solution with DMSO, which was then diluted at 1:5 to obtain 9 gradients with the initial final concentration set at 10 μM. Meanwhile, a control group and a blank group were also set up. The reaction buffer consisted of 15 mM Tris (pH 7.5), 10 mM MgCl2, and 0.01% Pluronic F-68. 4 nM KIF18A (1467) and the test compound were added to a 384-well plate and incubated at 37° C. for 20 mm. Then, 30 μM ATP was added to initiate the enzymatic reaction, and the plate was incubated at room temperature for 15 min. Finally, the ADP-Glo reagent was added to detect the luminescence intensity, where the luminescence intensity is directly proportional to the ADP content. Inhibition rate (%)=[…]. Sample signal is the value of the compound group, and DMSO signal is the value of the DMSO control group. Then, the inhibition rate at each concentration was calculated, and the IC50 was determined by fitting using the GraphPadPrism 7.0 software.

OVCAR3 cells [2] = assay: Detection of cell proliferation activity by CCK8 method (OVCAR3); format: cell-based; conditions: Homo sapiens, OVCAR-3, CCK8, 96 h
Source text: (§2) This assay can be used to examine the potency of compounds in inhibiting the proliferation of tumor cells (OVCAR3, HT-29, BT-549, HCT-116). A lower IC50 value indicates high potency of the compound as a KIF18A inhibitor in the following assay setup,
(§3) McCoy's 5A medium purchased from Sangon Biotech; CCK8 kit purchased from Beyotime; OVCAR3, HT-29, HCT-116, and BT-549 cells purchased from Shanghai Fuheng Biotechnology Co., Ltd.; multimode microplate reader (Thermo).
(§4) Cells at the logarithmic growth phase were taken, digested with a cell lysis buffer (trypsin), centrifuged, counted, and seeded into a 96-well plate at an appropriate cell density (BT549: 1500 cells/well in 1640 medium. HT-29 and HCT-116: 2000 cells/well in McCoy's 5A medium), with 180 μL per well, for a total of 60 wells. The surrounding wells were filled with an equal amount of PBS to prevent water evaporation from the edge wells. The next day after cell plating, the test compounds at different concentration gradients (with an initial final concentration of 10 μM, diluted in a 1:5 gradient to obtain 9 concentration gradients) were added to the wells. Three replicate wells were set up for each concentration point, and a corresponding DMSO negative control group was also set up. Detection: After 96 h of drug treatment, the test cell culture plate was removed from the incubator. All the liquid in the 96-well plate was aspirated, and 100 μL of medium containing 10% CCK8 solution was added to each well. The plate was then incubated at 37° C. for 2 h (the OD450 of the DMSO group reached 1.5 or more), and the absorbance at 450 nm was measured using a microplate reader
(§5) After the background value was subtracted from the measurement for each well, the inhibition rate was calculated. Inhibition Rate (%)=(1−Sample/Vehicle)×100. Sample is the luminescence value of the drug treatment group, and Vehicle is the luminescence value of the DMSO control group. A sigmoidal dose-survival rate curve was plotted using a non-linear regression model in the GraphPad Prism 7.0 software, and the IC50 values were calculated.

HT-29 cells [3] = assay: Detection of cell proliferation activity by CCK8 method (HT-29); format: cell-based, human; conditions: Homo sapiens, CCK8, 96 h
Source text: as §2, §3, §4, §5

HCT-116 cells [4] = assay: Mitotic index analysis, pH3 expression in HCT-116 cells; format: cell-based; conditions: Homo sapiens, 24 h treatment
Method: as §1

HCT-116 cells [5] = assay: Detection of cell proliferation activity by CCK8 method (HCT-116); format: cell-based; conditions: Homo sapiens, CCK8, 96 h
Source text: as §2, §3, §4, §5

BT-549 cells = assay: Detection of cell proliferation activity by CCK8 method (BT-549); format: cell-based; conditions: Homo sapiens, CCK8, 96 h
Source text: as §2, §3, §4, §5

[6] = Pharmacokinetic test in mice; format: in vivo; conditions: BALB/c mice, PO @30mpk; for AUC / Cmax / half-life: mouse, plasma, 30 mg/kg; for half-life: read-out: t½ (converted)
Method: In this example, the pharmacokinetic behavior of the compounds after intravenous injection (IV) and intragastric (PO) administration in BALB/c mice was tested.
On the day of administration, mice were weighed for actual body weight and the administration volume was calculated. Each compound was tested in two groups with 9 mice in each group; one group was subjected to administration by single intravenous injection, and the other group of mice was subjected to single intragastric administration. Whole blood samples were collected via the orbit at prescribed time points (0.25 h, 0.5 h, 1 h, 2 h, 4 h, 8 h, and 24 h after administration). After blood sample collection, the samples were immediately transferred to labeled commercial sample tubes containing K2-EDTA (0.85-1.15 mg), followed by centrifugation (3200×g, 4° C., 10 min) and plasma collection. The plasma was transferred to a pre-cooled centrifuge tube, frozen in dry ice, and then stored in an ultra-low temperature freezer at −60° C. or lower until the LC-MS/MS analysis.
Plasma concentrations were determined by the LC-MS/MS method. Plasma drug concentration data for the compounds were processed using a non-compartmental model in the WinNonlin Version 6.3 (Pharsight, Mountain View, CA) pharmacokinetic software. The relevant pharmacokinetic parameters were calculated by a linear-log trapezoidal method.

OVCAR3 cells [7] = assay: Detection of OVCAR3 cell proliferation activity by CTG method; format: cell-based; conditions: Homo sapiens, OVCAR-3, 168 h, CellTiter-Glo, 7 days
Source text: as §2
1640 medium; fetal bovine serum; penicillin/streptomycin antibiotics purchased from Wisent; CellTiter-Glo (chemiluminescence detection reagent for cell viability) reagent purchased from Promega; OVCAR3 cell line purchased from Nanjing Cobioer Biosciences Co., Ltd.; Nivo multimode microplate reader (PerkinElmer),
OVCAR3 cells were seeded into a white 96-well plate, with 80 μL of cell suspension containing 2000 OVCAR3 cells added to each well. The cell plate was incubated in a CO2 incubator overnight.
A test compound was 5-fold diluted to the 8th concentration (i.e., from 2 mM to […]) using a multichannel pipette, with duplicate wells set up. To an intermediate plate was added 78 μL of medium, and the serially diluted compound was transferred to the corresponding wells of the intermediate plate at 2 μL/well. The mixture was mixed well and then transferred to the cell plate at 20 μL/well. The concentration of the compound transferred to the cell plate ranged from 10 μM to 0.026 nM. The cell plate was incubated in a CO2 incubator for 7 days. Another cell plate was prepared and read for signal values on the day of compound addition, and these values were used as the maximum values (the Max value in the equation below) in data analysis. To this cell plate was added the chemiluminescence detection reagent for cell viability at 25 μL/well, and the luminescence signals were stabilized by incubation at room temperature for 10 min. Readings were taken using the multimode microplate reader.
To the cell plate was added the chemiluminescence detection reagent for cell viability at 25 μL/well, and the luminescence signals were stabilized by incubation at room temperature for 10 mm. Readings were taken using the multimode microplate reader, […]

Chain of KIF18A (Q8NI77 1-467): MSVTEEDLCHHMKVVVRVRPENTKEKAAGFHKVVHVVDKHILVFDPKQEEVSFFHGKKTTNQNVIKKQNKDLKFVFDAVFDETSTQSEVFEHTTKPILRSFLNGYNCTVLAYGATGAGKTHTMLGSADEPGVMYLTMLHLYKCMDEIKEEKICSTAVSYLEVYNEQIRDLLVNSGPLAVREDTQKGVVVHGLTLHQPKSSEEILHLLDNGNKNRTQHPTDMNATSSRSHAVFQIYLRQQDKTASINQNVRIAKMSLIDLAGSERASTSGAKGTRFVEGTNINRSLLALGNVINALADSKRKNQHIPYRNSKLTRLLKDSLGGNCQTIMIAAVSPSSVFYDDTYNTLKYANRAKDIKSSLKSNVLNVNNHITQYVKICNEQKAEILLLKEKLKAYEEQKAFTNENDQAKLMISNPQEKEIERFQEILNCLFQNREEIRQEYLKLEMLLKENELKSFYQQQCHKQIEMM

Compound	EC50 (HT-29 cells [1]) [nM]	IC50 (KIF18A) [nM]	IC50 (OVCAR3 cells [2]) [nM]	IC50 (HT-29 cells [3]) [nM]	EC50 (HCT-116 cells [4]) [nM]	IC50 (HCT-116 cells [5]) [nM]	IC50 (BT-549 cells) [nM]	F [6] [%]	AUC [6] [µM·h]	Cmax [6] [µM]	half-life [6] [h]	IC50 (OVCAR3 cells [7]) [nM]
CS(=O)(=O)Nc1ccc(C(=O)Nc2cc3nccnc3c(N3CCC(F)(F)CC3)n2)c(N2CCC3(CC2)CC3)c1 [Compound 70]	33.6	95.9	31.5	68.9	> 10000	> 10000	91	–	–	–	–	–
O=C(Nc1cc2nccnc2c(N2CCC(F)(F)CC2)n1)c1ccc(NS(=O)(=O)CCO)cc1N1CC2CCC(C2)C1 [Compound 73]	24.8	38.4	20.2	41.8	> 10000	> 10000	77.9	72	69.1	4.66	3.8	–
CS(=O)(=O)Nc1ccc(C(=O)Nc2cn3ncnc3c(N3CCC(F)(F)CC3)n2)c(N2CCC3(CC2)CC3)c1 [Compound 57]	26.7	27.9	14.6	33.8	> 10000	> 10000	31.9	44	154	6.98	146	–
Cn1ncc2cc(NC(=O)c3ccc(NS(C)(=O)=O)cc3N3CC4CCC(C4)C3)nc(N3CCC(F)(F)CC3)c21 [Compound 56]	13.4	40.8	16.2	25.4	> 10000	> 10000	121	142	436	23.6	80.8	–
CC1(S(=O)(=O)Nc2ccc(C(=O)Nc3cn4ccnc4c(N4CCC(F)(F)CC4)n3)c(N3CCC4(CC3)CC4)c2)CC1 [Compound 13]	235	187	–	131	> 10000	> 10000	110	–	–	–	–	33
O=C(Nc1cc2ncccc2c(N2CCC(F)(F)CC2)n1)c1ccc(NS(=O)(=O)CCO)cc1N1CCC2(CC1)CC2 [Compound 40]	–	62.9	68.3	177	> 10000	> 10000	219	–	–	–	–	–
